# Test results as given in the OPERA property sets (Mansouri et al. 2018).
# Where a SMILES comes first, the peptide text is derived from it. The star is where a group is joined. NHtBu = CC(C)(C)N*
row,SMILES,logP
1,CCN1C(=O)NC(=O)C(=O)C1=O,-0.32
2,CC(=O)C1(O)C(C)CC2C3CCC4=CC(=O)C=CC4(C)C3(F)C(O)CC21C (stereo not drawn),2.35
3,CCOc1ncnc2c1ncn2C1OC(CO)CC1F (stereo not drawn),0.8
4,C#CCOc1c(Cl)cc(NC=NOC(C)CC)cc1Cl (stereo not drawn),4.2
5,C=CCn1cnc2c(=O)[nH]c(Nc3ccccc3)nc21,1.75
6,CC1CC2C3CCC4=CC(=O)C=CC4(C)C3(F)C(O)CC2(C)C1(O)C(=O)NCCc1ccccc1 (stereo not drawn),3.66
7,CCCCOc1ccccc1NC(=O)OCCN1CCOCC1,3.25
8,CCCCCCC(=O)OC(C(=O)NC1C(=O)N2C(C(=O)O)=C(C)CSC12)c1ccccc1 (stereo not drawn),3.23
9,Cc1c(Cl)cccc1Cl,3.99
10,Clc1ccc(Cl)c(-c2cc(Cl)c(Cl)c(Cl)c2Cl)c1,7.19
11,CCCCOc1cccc(NC(=O)OCCN2CCOCC2)c1,3.62
12,O=[N+]([O-])c1ncn(CC(F)(F)CO)n1,-0.21
13,Oc1ccc(O)c2ncccc12,1.42
14,Nc1ccc2c(c1)C(=O)N(O)C2=O,0.16
15,CCCCCCOC(=O)Oc1cccc(C2(C(=O)CC)CCN(C)CC2)c1,3.38
16,Cc1[nH]cnc1CSCCNC1=NC(=O)CN1,-0.5
17,CN(C)N=Nc1ccc([N+](=O)[O-])cc1,3.25
18,CC(=O)N[C@@H](CO)C(=O)N[C@H](C(N)=O)C(C)C (Ac-Ser-Val-NH2),-1.53
19,CCN1C(=O)C(=O)c2c(cccc2[N+](=O)[O-])C1=O,0.82
20,CSC(SC)=C(C(=O)OC(C)C)C(=O)OC(C)C,3.38
21,C=CCC1CN(C)CCC1(OC(=O)CC)c1ccccc1 (stereo not drawn),2.97
22,CCCCCOc1cccc(NC(=O)OCCN2CCOCC2)c1,4.13
23,CN1CCN(Cc2ccc(Cl)nc2)C1=N[N+](=O)[O-],0.26
24,O=[N+]([O-])c1c(Cl)c(Cl)cc(Cl)c1Cl,4.38
25,CCC(=O)C(CS(=O)(=O)c1ccc(C)cc1)c1ccc(C)cc1 (stereo not drawn),3.3
26,CCCn1c(=O)c2nc(-c3ccccc3N)[nH]c2n(CCC)c1=O,3.54

row,SMILES,logP
1,CCCC(=O)OC(C(=O)NC1C(=O)N2C(C(=O)O)=C(C)CSC12)c1ccccc1 (stereo not drawn),1.89
2,CCCCCOc1ccccc1NC(=O)OCCN1CCCCC1,4.97
3,Cc1c(O)c(=O)ccn1-c1ccccc1,1.12
4,CCCCCOc1ccc2ccc(=O)oc2c1,3.92
5,CCCCCCCC(=O)OC(C(=O)NC1C(=O)N2C(C(=O)O)=C(C)CSC12)c1ccccc1 (stereo not drawn),3.54
6,C#CCOc1c(Cl)cc(NC=NOCSC)cc1Cl,3.6
7,CC(=O)NC(CCCCN)C(=O)NC(CC(C)C)C(N)=O (stereo not drawn) (Ac-Lys-Leu-NH2; configuration not given here),-0.26
8,CCC(=O)C(CS(=O)(=O)c1ccccc1)c1ccc(Cl)cc1 (stereo not drawn),2.69
9,COc1nc(N)nc(C(Cl)(Cl)Cl)n1,2.39
10,O=C(OCCCl)n1cc(F)c(=O)[nH]c1=O,0.02
11,COCCN1CCc2cccc(Cl)c2CC1,3
12,CC(=O)NC(C)C(=O)NC(CCC(=O)O)C(=O)NC(C)C(=O)NC(C)(C)C (stereo not drawn) (Ac-Ala-Glu-Ala-NHtBu; configuration not given here),-0.67
13,O=C1NC(=O)N(Cc2ccccc2)C(=O)C1=O,1.02
14,CC(C)CCNC(=O)C1(O)C(C)CC2C3CCC4=CC(=O)C=CC4(C)C3(F)C(O)CC21C (stereo not drawn),3.74
15,C#CCOc1c(Cl)cc(NC=NO)cc1Cl,2.8
16,Cc1cc(OCCN(C)C)c(C(C)C)cc1OS(=O)(=O)C12CCC(CC1=O)C2(C)C (stereo not drawn),4.37
17,Cc1nc([N+](=O)[O-])c(Cl)n1C,0.34
18,CN1C(=O)C(=O)C(=O)N(C)C1=O,-0.6
19,O=[N+]([O-])C=C1NCCN1Cc1ccccc1,0.33
20,CNC(=O)OCc1ccc(Cl)cc1,2.42
21,CC1CC2C3CCC4=CC(=O)C=CC4(C)C3(F)C(O)CC2(C)C1(O)C(=O)NCc1ccc([N+](=O)[O-])cc1 (stereo not drawn),3.44
22,CCN(C=Nc1ccn(C2CC(O)C(CO)O2)c(=O)n1)CC (stereo not drawn),-0.59
23,Cc1cn(C2CC(N=[N+]=[N-])C(COC(=O)CCNC(=O)C34CC5CC(CC(C5)C3)C4)O2)c(=O)[nH]c1=O (stereo not drawn),2.14
24,O=[N+]([O-])c1cnc(C=Cc2ccccc2)n1CCO,2.25
25,CC(C)CNCCCS(=O)(=O)c1ccc(S(N)(=O)=O)s1,-0.35
26,CC1(C)COC(Cn2cncn2)(c2ccc(-n3ccnc3)cc2Cl)OC1,2.26

row,SMILES,logP
1,OCCOc1ccccc1Cl,1.81
2,C=C(C)c1c(OC)cc(Cc2cnc(N)nc2N)cc1OCC,2.65
3,COCC(O)Cn1c(C)cnc1[N+](=O)[O-] (stereo not drawn),0.03
4,CCC(=O)OC1(c2ccccc2)CCN(C)C(C)C1C (stereo not drawn),3.13
5,CC(C)(C)C(COc1ccc(S(C)(=O)=O)cc1)OC(=O)n1ccnc1 (stereo not drawn),2.59
6,CN(C)C(=O)COC(=O)c1cc(S(N)(=O)=O)c(Cl)cc1NCc1ccco1,1.18
7,Cc1c([N+](=O)[O-])ncn1C,-0.11
8,Cc1ccccc1C(=O)OCC1CCC(n2cnc3c(=O)[nH]cnc32)O1 (stereo not drawn),1.02
9,CC(C)c1cccc(C(C)C)c1N,3.18
10,NC(=O)Cc1cccc2cccnc12,1.87
11,CC(C)(C)C(=O)OCOC(=O)C1=C(CSc2nncs2)CSC2C(NC(=O)Cn3cnnn3)C(=O)N12 (stereo not drawn),1.45
12,Cc1cn(C2CC(N=[N+]=[N-])C(COC(=O)CNC(=O)C34CC5CC(CC(C5)C3)C4)O2)c(=O)[nH]c1=O (stereo not drawn),2.1
13,Cc1ccc(C)c(Cl)c1,3.86
14,COc1ccc(OC)c(Cc2cnc(N)nc2N)c1,1.7
15,N#CC(C#N)=NNc1c(Cl)cccc1Cl,4.51
16,O=C(Cc1ccccc1)Nc1cccc(C(F)(F)F)c1,3.84
17,NC(=O)CC(CC(=O)O)c1ccc(Br)cc1 (stereo not drawn),1.12
18,Brc1ccc(Br)c(-c2cc(Br)c(Br)cc2Br)c1,7.1
19,CC(=NNC(=S)NNC(=S)Nc1ccccc1Cl)c1ccccn1,2.67
20,CCCCC(=O)OC(C(=O)NC1C(=O)N2C(C(=O)O)=C(C)CSC12)c1ccccc1 (stereo not drawn),2.23
21,Clc1ccc(Oc2nc(C(Cl)(Cl)Cl)nc(C(Cl)(Cl)Cl)n2)cc1,5.67
22,COC(C)(C(=O)O)c1ccccc1 (stereo not drawn),1.64
23,C#CCNC(=O)C1(O)C(C)CC2C3CCC4=CC(=O)C=CC4(C)C3(F)C(O)CC21C (stereo not drawn),2
24,CN(C)c1ccc2c(c1)C(=O)N(OS(C)(=O)=O)C2=O,1.65
25,CN(CCCn1ccnc1C=NO)S(=O)(=O)C(F)(F)F,1.77
26,Nc1ncnc2c1ncn2C1OC(CO)CC1O (stereo not drawn),-0.61

row,SMILES,logP
1,CC1(C)CCCC(C)(C)N1[O],1.85
2,CCN1C(=O)C(=O)c2ccc(OC)cc2C1=O,1.49
3,CN1C=CCC1c1cccnc1 (stereo not drawn),1.47
4,CCCCNC(=O)CNC(=O)C=[N+]=[N-],0.37
5,CN(C)C=Nc1ccn(C2CC(O)C(CO)O2)c(=O)n1 (stereo not drawn),-1.54
6,Clc1cc2c(c(Cl)c1Cl)Oc1ccc(Cl)c(Cl)c1O2,6.74
7,CCN(CC)CCSC(=NO)c1nonc1C,1.4
8,Cc1n[nH]c(C(=O)NC2CCCCC2)c1[N+](=O)[O-],1.71
9,COC1CC(OC2CCC3(C)C(CCC4C3CCC3(C)C(C5=CC(=O)OC5)C(OC(C)=O)CC43OC(C)=O)C2)OC(C)C1O (stereo not drawn),2.95
10,Clc1ccc(Cl)c(-c2cccc(Cl)c2Cl)c1,5.81
11,O=C(NCCO)C(F)(F)Cn1cnc([N+](=O)[O-])n1,-0.77
12,S=C=NCCCCc1cccnc1,2.7
13,C#CCOc1c(Cl)cc(NC=NOCCOCC)cc1Cl,3.7
14,S=C(N/N=C/c1ccc[nH]1)Nc1ccccc1,3.73
15,CC1COC(Cn2cncn2)(c2ccc(Oc3ccc(Cl)cc3)cc2Cl)O1 (stereo not drawn),4.3
16,CC1CC2C3CCC4=CC(=O)C=CC4(C)C3(F)C(O)CC2(C)C1(O)C(=O)NCc1ccccc1 (stereo not drawn),3.28
17,CNc1nccn2cc(-c3ccc(S(C)=O)cc3OC)nc12 (stereo not drawn),1.88
18,CCOc1ccccc1NC(=O)OCCN1CCOCC1,2.27
19,Clc1cc(Cl)c(Cl)c(-c2cc(Cl)cc(Cl)c2Cl)c1,7.07
20,OCCOc1ccc(Cl)cc1,1.99
21,CCCCCc1cc(CCCCN2CC(=O)c3ccccc3C2=O)c2c(c1)OC(C)(C)C1CC=C(C)CC21 (stereo not drawn),9.07
22,CC(=O)OC1(c2ccccc2)CCN(C)C(C)C1C (stereo not drawn),2.52
23,COC(=O)CNC(=O)C1(O)C(C)CC2C3CCC4=CC(=O)C=CC4(C)C3(F)C(O)CC21C (stereo not drawn),1.69
24,c1ccc(-c2ccc(C(c3ccccc3)n3ccnc3)cc2)cc1 (stereo not drawn),4.77
25,Nc1ccc(Oc2ccc(N)cc2)cc1,1.36
26,Cc1cccc(C)c1NN=C(C#N)C#N,2.8

row,SMILES,logP
1,CN(CC1(C)CCCO1)S(=O)(=O)c1ccc(Cl)c(S(N)(=O)=O)c1 (stereo not drawn),1.54
2,Cc1cccc(OCCO)c1,1.76
3,CC(=O)OCN1C(=O)C2=C(CCCC2)C1=O,1.15
4,COCCNC(=O)C(F)(F)Cn1cnc([N+](=O)[O-])n1,-0.15
5,CCN1CC(C(O)C(CC2CCCCC2)NC(=O)C(Cc2c[nH]cn2)NC(=O)C(Cc2ccc(OC)cc2)NC(=O)C(C)C)OC1=O (stereo not drawn),2.85
6,CC1CC2C3CCC4=CC(=O)C=CC4(C)C3(F)C(O)CC2(C)C1(O)C(=O)NC(C)(C)C (stereo not drawn),3.2
7,CC1(C)CCC(C)(C)N1[O],1
8,Clc1cccc(-c2c(Cl)c(Cl)c(Cl)c(Cl)c2Cl)c1,7.3
9,CCC(=O)c1ccc2c(c1)N(CC(C)N(C)C)c1ccccc1S2 (stereo not drawn),4.79
10,O=[N+]([O-])C=C1NCCN1CCc1ccc(Cl)nc1,-0.23
11,COc1ccccc1NC(=O)OCCN1CCOCC1,1.73
12,CC(C)(C)C(=O)C(C#N)=NNc1cc(C(F)(F)F)ccc1Cl,5.31
13,NC(=Nc1ccccc1)NN=Cc1ccc2ccccc2n1,0.99
14,CCC1COC(Cn2cncn2)(c2ccc(NC(=O)C(F)(F)F)cc2)O1 (stereo not drawn),1.08
15,CCOc1ccc(C2(C(=O)OC)CC(F)(F)C2(F)F)cc1 (stereo not drawn),4.06
16,Nc1nc(Sc2ccc(Cl)cc2)nc(C(Cl)(Cl)Cl)n1,4.51
17,Cc1nc([N+](=O)[O-])cn1C,-0.24
18,Cc1ccc(Cl)cc1O,2.63
19,CCCCOC(=O)NCCn1c([N+](=O)[O-])cnc1C,1.22
20,CC(C)CC(C)CC(C)OC(=O)c1ccc(NC(=O)N(C)C)cc1Cl (stereo not drawn),5.15
21,C1CC2=NOS3=C2C(=NO3)C1,1.1
22,NC(COCc1cccnc1)C(=O)O (stereo not drawn),-2.44
23,Nc1nc(NCCO)c(Cl)nc1[N+](=O)[O-],0.12
24,COCCCNc1nc(NC(C)C)nc(SC)n1,2.82
